Results: patent US6166000A, “Methods for preparation and use of 1α,24(S)-Dihydroxy vitamin . D.sub2” (priority 1995, dated 2000)

What was measured:
[1] = target: T1, vitamin D serum binding protein (DBP) (Rattus norvegicus, UniProt P04276); experiment: Affinity for vitamin D serum binding protein using vitamin D deficient rat serum; settings: in words
T1 sequence (P04276 17-476): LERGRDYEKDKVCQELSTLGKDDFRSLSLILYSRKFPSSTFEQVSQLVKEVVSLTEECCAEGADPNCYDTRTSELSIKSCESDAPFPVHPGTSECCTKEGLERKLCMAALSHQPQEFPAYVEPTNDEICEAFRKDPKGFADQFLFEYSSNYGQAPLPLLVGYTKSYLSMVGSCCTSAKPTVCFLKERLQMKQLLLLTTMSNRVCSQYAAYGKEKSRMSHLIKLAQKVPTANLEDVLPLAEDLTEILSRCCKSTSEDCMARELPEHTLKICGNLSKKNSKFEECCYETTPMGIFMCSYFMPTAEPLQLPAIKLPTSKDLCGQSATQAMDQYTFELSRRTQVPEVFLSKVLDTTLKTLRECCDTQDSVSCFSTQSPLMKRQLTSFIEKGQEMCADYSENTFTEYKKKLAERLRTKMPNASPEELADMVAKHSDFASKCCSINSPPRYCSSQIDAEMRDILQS
From the text: In addition, the weak binding by the DBP was indicative of more rapid clearance, allowing for low toxicity.

Hep 3B cells = experiment: Metabolite production in Hep 3B cells incubated with 1α-OH-D2; format: in vitro ADME, human; settings: Experiment 2, photodiode array spectrophotometry
Experimental: Substantially pure 1α-(OH)D2 was obtained from Bone Care International, Inc. of Madison, Wis. The 1α-(OH)D2 was cultured for 48 hours with cells derived from a human hepatoma, Hep 3B, in medium devoid of fetal calf serum using known methods in the art.
Lipid extracts of the combined medium and cells were generated by known methods in the art and were subjected to high pressure liquid chromatography (HPLC) on Zorbax-S1L developed with hexane/isopropanol/methanol (91:7:2). The putative 1α,24(?)-(OH)2 D2 metabolite eluted between the parent 1α-(OH)D2 and standard 1α,25-(OH)2 D2 (also obtained from Bone Care International, Inc. of Madison, Wis.). (As used herein, the term "1α,24(?)-(OH)2 D2 " is meant to indicate that the epimeric form has not been identified.) The 1α,24(?)-(OH)2 D2 was further purified by this HPLC system before the metabolite's identification was undertaken using mass spectrometry analysis.
Hep 3B cells were incubated with 1α-OH-D2, as described above, at final concentrations of 1, 10, or 100 nM (Experiment 1), and 1 or 10 μM (Experiment 2) and 1α,24(S)-(OH)2 D2 was extracted and purified. The 1α,24(S)-(OH)2 D2 and 1α,25-(OH)2 D2 metabolites were quantitated by recovered radiolabel (Experiment 1) or by photodiode array spectrophotometry (Experiment 2).

[2] = Blood metabolite levels in osteoporotic women administered 1α-OH-D2; format: in vivo; settings: one day after a single 2 μg dose of 1α-OH-D2; human females
Experimental: An increase in the production of 1α,24(S)-(OH)2 D2 relative to 1α,25-(OH)2 D2 has also been observed by the present inventors in human females who received 1α-OH-D2 as part of an investigation of that drug for the treatment of osteoporosis. Following either a single dose of 2 μg of 1α-OH-D2 or daily doses of 8 μg/day for one week, blood was collected and analyzed for the metabolites 1α,24(S)-(OH)2 D2 and 1α,25-(OH)2 D2. Lipid was extracted from the blood, and the metabolites were purified by HPLC using standard methods and quantified with the radioreceptor assay produced by Incstar (Stillwater, Minn.). One day after a single 2 μg dose, the level of 1α,24(S)-(OH)2 D2 was undetectable with the 1α,25-(OH)2 D2 level being approximately 11 pg/ml. In contrast, one day following the last dose of 8 μg, the level of 1α,24(S)-(OH)2 D2 averaged 9 pg/ml with the 1α,25-(OH)2 D2 level averaging 30 pg/ml.

[3] = test system: postmenopausal osteoporotic out-patients; experiment: Preventive treatment of bone mass loss in postmenopausal osteoporotic women; format: in vivo, human; settings: at or above 1.0 μg/day, 24 to 36 months
Experimental: A clinical study is conducted with postmenopausal osteoporotic out-patientshaving ages between 55 and 75 years. The study involves up to 120 patients randomly divided into three treatment groups and continues for 24 to 36 months. Two of the treatment groups receive constant dosages of 1α,24(S)-dihydroxy vitamin D2 (u.i.d.; two different dose levels at or above 1.0 μg/day) and the other group receives a matching placebo. All patients maintain a normal intake of dietary calcium (500 to 800 mg/day) and refrain from using calcium supplements. Efficacy is evaluated by pre-and post-treatment comparisons of the patient groups with regard to (a) total body calcium retention, and (b) radial and spinal bone mineral density as determined by dual-photon absorptiometry (DPA) or dual-energy x-ray absorptiometry (DEXA). Safety is evaluated by comparisons of urinary hydroxyproline excretion, serum and urine calcium levels, creatinine. clearance, blood urea nitrogen, and other routine determinations.

[4] = test system: healthy postmenopausal women; experiment: Prophylaxis of postmenopausal bone loss; format: in vivo, human; settings: at or above 1.0 μg/day, 24 to 36 months
Experimental: A clinical study is conducted with healthy postmenopausal women having ages between 55 and 60 years. The study involves up to 80 patients randomly divided into two treatment groups, and continues for 24 to 36 months. One treatment group receives a constant dosage of 1α,24(S)-dihydroxy vitamin D2 (u.i.d.; a dose level at or above 1.0 μg/day) and the other receives a matching placebo. The study is conducted as indicated in Example 2 above.

Human keratinocytes = experiment: Epidermal cell differentiation and proliferation testing; format: cell-based; settings: 0.05 to 5 μg/ml
Experimental: Human keratinocytes are cultured according to known modifications of the system originally described by Rheinwald and Green (Cell, vol. 6, p. 331 (1975)). The 1α,24(S)-dihydroxy vitamin D2, dissolved in ethanol, is added to cells to yield a variety of concentrations between 0.05 and 5 μg/ml with the ethanol concentration not to exceed 0.5% v/v. Control cultures are supplemented with ethanol at a final concentration of 0.5% v/v.
Differentiation and proliferation of epidermal cells in culture is examined by:
1. quantitation of cornified envelopes;
2. quantitation of cell density of cells attached to disks;
3. monitoring transglutaminase activity; or
4. monitoring DNA synthesis by incorporation of ^3 H-thymidine.

[5] = test system: human cancer cell lines BCA-1 or ZR-75-1 (breast) and COL-1 (colon); experiment: Antiproliferative activity in human cancer cell lines (thymidine incorporation); format: cell-based; settings: dose-response
Experimental: Dose-response studies are conducted with 1α,24(S)-(OH)2 D2 in a battery of human cancer cell lines. These cell lines include, but are not limited to, the following: BCA-1 or ZR-75-1 (breast) and COL-1 (colon), as described by Shieh, H. L. et al. Chem. Biol. Interact., vol. 81, pp. 35-55 (1982). In this study, appropriate solvents are used as negative controls.

SMILES: C=C1/C(=C\C=C2/CCC[C@]3(C)[C@@H]([C@H](C)/C=C/[C@@](C)(O)C(C)C)CC[C@@H]23)C[C@@H](O)C[C@@H]1O [1α,24(S)-(OH)2 D2, 1α,24(S)-dihydroxy Vitamin D2]
- binding affinity for the vitamin D serum binding protein [1]: more weakly than does 1,25-(OH)2 D3
- Rate of Production (Hep 3B cells; substrate 1α-OH-D2 1 μM): 4.9 pmol per 10^6 cells/day
- Rate of Production (Hep 3B cells; substrate 1α-OH-D2 10 μM): 59 pmol per 10^6 cells/day
- blood level of metabolite [2]: undetectable
- incidence of hypercalcemia or hypercalciuria, or any other metabolic disturbance [3]: insignificant incidence
- total body calcium, and radial and spinal bone densities relative to placebo [3]: significantly higher
- monitored safety parameters, long-term administration [4]: confirm the safety
- DNA synthesis (3H-thymidine incorporation) vs control cultures (Human keratinocytes): lower DNA synthesis
- cell density of attached cells vs control cultures (Human keratinocytes): fewer attached cells
- cornified envelopes vs control cultures (Human keratinocytes): more cornified envelopes
- transglutaminase activity vs control cultures (Human keratinocytes): higher transglutaminase activity
- antiproliferative activity (inhibition of thymidine incorporation) [5]: potent (and reversible) antiproliferative activity
